Measured values published in BigSolDB 2.1.

Cc1cccc([N+](=O)[O-])c1N
solubility (mole fraction)
Conditions	in 1,4-dioxane	in acetone	in acetonitrile	in cyclohexane	in ethanol	in ethyl acetate	in isopropanol	in methanol	in n-propanol	in toluene
278.15 K	–	0.113	0.0418	–	0.0102	0.0841	0.0086	0.00739	0.0108	0.0237
280.65 K	–	0.122	0.0466	–	0.0112	0.0924	0.00945	0.00829	0.012	0.0267
283.15 K	0.18	0.132	0.0529	0.00103	0.0125	0.101	0.0105	0.00916	0.0133	0.0301
285.65 K	0.19	0.142	0.0589	0.00118	0.0139	0.11	0.0119	0.0102	0.0149	0.0336
288.15 K	0.201	0.153	0.067	0.00136	0.0154	0.121	0.0133	0.0113	0.0165	0.0375
290.65 K	0.211	0.165	0.0753	0.00158	0.017	0.131	0.0147	0.0124	0.0183	0.0417
293.15 K	0.223	0.177	0.0844	0.00181	0.019	0.142	0.0163	0.014	0.0203	0.0469
295.65 K	0.236	0.19	0.0954	0.00211	0.021	0.155	0.0183	0.0155	0.0225	0.0521
298.15 K	0.249	0.203	0.106	0.00242	0.0233	0.168	0.0202	0.0172	0.0248	0.0581
300.65 K	0.262	0.217	0.119	0.00279	0.0256	0.182	0.0225	0.0192	0.0275	0.0647
303.15 K	0.277	0.233	0.133	0.00318	0.0284	0.196	0.0249	0.0212	0.0305	0.0719
305.65 K	0.291	0.249	0.148	0.00369	0.0314	0.212	0.0277	0.0234	0.0336	0.0804
308.15 K	0.306	0.265	0.165	0.00424	0.0346	0.228	0.0306	0.0261	0.0371	0.0893
310.65 K	0.323	0.283	0.183	0.00489	0.0381	0.246	0.0339	0.0288	0.041	0.0993
313.15 K	0.339	0.301	0.203	0.00562	0.042	0.265	0.0376	0.032	0.0451	0.11
